The values below come from article PMC5618792, “Dynamic multicolor protein labeling in living cells” (Chemical Science, 2017).

A short description of data set [1]: Physico-chemical properties of free fluorogens in aqueous solutions. The data set is classed as physicochemical. To be noted: free fluorogen; for pKa: aqueous solution, read-out: pKA, acidity constant. The method, then:
pH measurements were performed on a standard pH meter PHM210 Radiometer Analytical (calibrated with aqueous buffers at pH 4 and 7 or 10) with a Crison 5208 Electrode (Barcelona, Spain). The UV/Vis absorption spectra were recorded with 1 cm × 1 cm quartz cuvettes (Hellma) on a diode array UV/Vis spectrophotometer (Evolution array, Thermo Scientific). The corrected fluorescence spectra upon one-photon excitation were recorded with a Photon Technology International QuantaMaster QM-1 spectrofluorimeter (PTI, Monmouth Junction, NJ) equipped with a Peltier cell holder (TLC50, Quantum Northwest, Shoreline, WA). The overall emission quantum yields after one-photon excitation φ were determined as previously described.[14]
HBR-3,5DOM in aqueous solutions. Abbreviations are as follows : pKA, acidity constant ;
λabs,neutral, wavelength of maximal absorption of the protonated state; λabs,anionic, wavelength of
maximal absorption of the anionic state.
Fluorogen pKA λabs,neutral (nm) λabs,anionic (nm)

Data set [2] deals with T1, FAST (Halorhodospira halophila, UniProt P16113, C69G/D97P/F96I/M100R/Q99S/T101G/T95M/Y94W/Y98T).
T1 construct: His-tag; made in house; host or cells: Rosetta(DE3)pLysS E. coli
T1 sequence (P16113 whole entry C69G/Y94W/T95M/F96I/D97P/Y98T/Q99S/M100R/T101G): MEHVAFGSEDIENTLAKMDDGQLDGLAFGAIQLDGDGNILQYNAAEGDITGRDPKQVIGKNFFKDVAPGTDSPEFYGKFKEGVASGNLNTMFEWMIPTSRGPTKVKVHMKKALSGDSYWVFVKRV
In words: Spectroscopic properties of FAST:fluorogen complexes in PBS pH 7.4 (absorption, emission, quantum yield). The class given is physicochemical. To be noted: for Brightness = ε × φ / ε, molar absorption coefficient at λ abs / φ, fluorescence quantum yield / λ abs, wavelength of maximal absorption / λ em, wavelength of maximal emission / F bound/F unbound, fluorescence activation upon FAST binding / Δλ abs = λ abs,bound – λ abs,unbound, absorption red-shift upon FAST binding: PBS pH 7.4. How it is done:
(§1) The UV/Vis absorption spectra were recorded with 1 cm × 1 cm quartz cuvettes (Hellma) on a diode array UV/Vis spectrophotometer (Evolution array, Thermo Scientific). The corrected fluorescence spectra upon one-photon excitation were recorded with a Photon Technology International QuantaMaster QM-1 spectrofluorimeter (PTI, Monmouth Junction, NJ) equipped with a Peltier cell holder (TLC50, Quantum Northwest, Shoreline, WA). The overall emission quantum yields after one-photon excitation φ were determined as previously described.[14]

For data set [3], the target named is T1, FAST. In words: Affinity constants by spectrofluorometric titration of FAST with fluorogen. The class given is binding. The method, then: as §1
Data set [4] has as its system HeLa cells. In words: LIVE/DEAD viability/cytotoxicity assay. The class given is cell-based. The settings on record: 5 µM, 24 h, calceinAM and EthD1. How it is done:
The HeLa cells were treated with DMEM media containing the fluorogens at the indicated concentrations for the indicated times. The cell viability was evaluated by fluorescence microscopy using the LIVE/DEAD® viability/cytotoxicity assay kit (Molecular Probes, Life Technologies) following the manufacturer’s protocol.
Figure S2. Viability assay of HeLa cells incubated for 24 h with solutions of HBR-3,5DM, HBR-3OM and HBR-3,5DOM at 5 µM. Cell viability was tested by using calceinAM and EthD1 (LIVE/DEAD® viability/cytotoxicity assay kit). CalceinAM is a cell-permeant profluorophore cleaved by intracellular esterases releasing the green fluorescent polyanionic calcein in live cells. EthD1 (Ethidium homodimer 1) is a non cell-permeant nucleic acid red fluorescent stain that enters only cells with damaged membranes and undergoes a fluorescence enhancement upon binding to nucleic acids, thereby producing a bright red fluorescence in dead cells. Control experiments with HeLa cells non-incubated with dye (A) or incubated for 30 min with 1% hydrogen peroxyde (B) are shown. Cell fluorescence was evaluated by confocal microscopy.
3OM and HBR-3,5DOM are non-toxic for HeLa cells at the concentrations used for imaging.
(1 picture or pasted object on this page, not shown here)

[5] abbreviates: FAST:fluorogen complex, listed as FAST:HBR-2,5DM.
Where [6] appears, read: FAST:fluorogen complex, listed as FAST:HBR-3,5DM.
Setting [7] is: FAST:fluorogen complex, listed as FAST:HBR-3OE.
The mark [8] stands for this setting: FAST:fluorogen complex, listed as FAST:HBR-3OM.

One may read the pKa as the pH at which an ionisable group is half protonated. The Kd is the concentration at which binding is half-saturated. Low values mean higher affinity, high ones lower affinity. For `Cc1cc(/C=C2\SC(=S)NC2=O)c(C)cc1O` [HBR-2,5DM, (Z)-5-(4-Hydroxy-2,5-dimethylbenzylidene)-2-thioxo-1,3-thiazolidin-4-one], in data set [1], the pKa came out at 8.7; the “λabs,anionic, wavelength of maximal absorption of the anionic state” value (“λabs,anionic, wavelength” for short) came out at 472 nm; the “λabs,neutral, wavelength of maximal absorption of the protonated state” value (shortened to “λabs,neutral, wavelength”) is listed as 406 nm. In addition, in data set [2] (FAST:fluorogen complex), the “red-shifted absorption relative to FAST:HMBR” value is 15–20 nm; the “red-shifted emission relative to FAST:HMBR” value is reported as 10–20 nm; the “Brightness = ε × φ” value is on record as 14 500; the “ε, molar absorption coefficient at λ abs” value was 50 mM^–1 cm^–1. The “φ, fluorescence quantum yield” value in data set [2] (FAST:fluorogen complex) was found to be 29%. In addition, in data set [2] (setting [5]), the “λ abs, wavelength of maximal absorption” value worked out at 494 nm and the “λ em, wavelength of maximal emission” value is on record as 552 nm. Besides, in data set [2], the “F bound/F unbound, fluorescence activation upon FAST binding” value (“F bound/F unbound” below) came out at 430 and the “Δλ abs = λ abs,bound – λ abs,unbound, absorption red-shift upon FAST binding” value worked out at 88 nm. The same compound registered a Kd in data set [3] of 8 nM.

For the compound `Cc1cc(/C=C2\SC(=S)NC2=O)cc(C)c1O` [HBR-3,5DM, (Z)-5-(4-Hydroxy-3,5-dimethylbenzylidene)-2-thioxothiazolidin-4-one], in data set [1], the pKa turned out to be 8.7; the “λabs,anionic, wavelength” value was found to be 473 nm; the “λabs,neutral, wavelength” value was 401 nm. Also, in data set [2] (FAST:fluorogen complex), the “red-shifted absorption relative to FAST:HMBR” value is listed as 15–20 nm; the “red-shifted emission relative to FAST:HMBR” value is 10–20 nm; the “Brightness = ε × φ” value was 23 500; the “ε, molar absorption coefficient at λ abs” value is 48 mM^–1 cm^–1. The “φ, fluorescence quantum yield” value in data set [2] (FAST:fluorogen complex) is listed as 49%. Besides, in data set [2] (setting [6]), the “λ abs, wavelength of maximal absorption” value amounted to 499 nm and the “λ em, wavelength of maximal emission” value is recorded as 562 nm. In addition, in data set [2], the “F bound/F unbound” value was 660 and the “Δλ abs = λ abs,bound – λ abs,unbound, absorption red-shift upon FAST binding” value stood at 98 nm. Moreover, in data set [2] (higher than FAST:HMBR), the “overall brightness relative to the original FAST:HMBR complex” value turned out to be 2.5 fold. Further, binding in data set [3] was characterised by a dissociation constant (Kd) of 80 nM. For the same compound, the “toxicity for HeLa cells (cell viability)” value in data set [4] is “non-toxic”.

Take `COc1cc(/C=C2\SC(=S)NC2=O)cc(OC)c1O` [HBR-3,5DOM, (Z)-5-(4-Hydroxy-3,5-dimethoxybenzylidene)-2-thioxothiazolidin-4-one]: in data set [1], the pKa turned out to be 8.3; the “λabs,anionic, wavelength” value came to 484 nm; the “λabs,neutral, wavelength” value is 407 nm. In data set [2] (FAST:fluorogen complex), the Stokes shift is given as 82 nm, the “red-shifted absorption relative to FAST:HMBR” value is 40 nm, the “red-shifted emission relative to FAST:HMBR” value is 60 nm and the “Brightness = ε × φ” value was 12 000. In data set [2] (FAST:fluorogen complex), the “ε, molar absorption coefficient at λ abs” value is 39 mM^–1 cm^–1; the “λ em, wavelength of maximal emission” value was determined as 600 nm; the “φ, fluorescence quantum yield” value is on record as 31%. In data set [2], the “F bound/F unbound” value is reported as 220 and the “Δλ abs = λ abs,bound – λ abs,unbound, absorption red-shift upon FAST binding” value was 112 nm. The “toxicity for HeLa cells (cell viability)” value in data set [4] is “non-toxic”.

`CCc1cc(/C=C2\SC(=S)NC2=O)ccc1O` [HBR-3E, (Z)-5-(3-Ethyl-4-hydroxybenzylidene)-2-thioxothiazolidin-4-one]: in data set [2] (FAST:fluorogen complex), the “Brightness = ε × φ” value was 6500; the “ε, molar absorption coefficient at λ abs” value worked out at 50 mM^–1 cm^–1; the “λ abs, wavelength of maximal absorption” value is listed as 481 nm; the “λ em, wavelength of maximal emission” value is reported as 543 nm. The “φ, fluorescence quantum yield” value in data set [2] (FAST:fluorogen complex) was 13%. In addition, in data set [2], the “F bound/F unbound” value was 300 and the “Δλ abs = λ abs,bound – λ abs,unbound, absorption red-shift upon FAST binding” value is 81 nm. This compound displayed a dissociation constant (Kd) in data set [3] of 80 nM.

In the case of `CCOc1cc(/C=C2\SC(=S)NC2=O)ccc1O` [HBR-3OE, (Z)-5-(3-Ethoxy-4-hydroxybenzylidene)-2-thioxothiazolidin-4-one], in data set [2] (FAST:fluorogen complex), the “red-shifted absorption relative to FAST:HMBR” value was 15–20 nm; the “red-shifted emission relative to FAST:HMBR” value is on record as 10–20 nm; the “Brightness = ε × φ” value is reported as 7000; the “ε, molar absorption coefficient at λ abs” value amounted to 41 mM^–1 cm^–1. Moreover, in data set [2] (FAST:fluorogen complex), the “φ, fluorescence quantum yield” value is listed as 17%. For the same compound, in data set [2] (setting [7]), the “λ abs, wavelength of maximal absorption” value is on record as 497 nm and the “λ em, wavelength of maximal emission” value stood at 562 nm. In data set [2], the “F bound/F unbound” value was 230 and the “Δλ abs = λ abs,bound – λ abs,unbound, absorption red-shift upon FAST binding” value came out at 94 nm. Moreover, the affinity in data set [3], expressed as Kd, was 270 nM.

Regarding `COc1cc(/C=C2\SC(=S)NC2=O)ccc1O` [HBR-3OM, (Z)-5-(4-Hydroxy-3-methoxybenzylidene)-2-thioxo-1,3-thiazolidin-4-one], in data set [1], the pKa is 8.3; the “λabs,anionic, wavelength” value came to 468 nm; the “λabs,neutral, wavelength” value is 403 nm. Besides, in data set [2] (FAST:fluorogen complex), the “red-shifted absorption relative to FAST:HMBR” value was 15–20 nm; the “red-shifted emission relative to FAST:HMBR” value was 10–20 nm; the “Brightness = ε × φ” value is 14 400; the “ε, molar absorption coefficient at λ abs” value stood at 40 mM^–1 cm^–1. Moreover, the “φ, fluorescence quantum yield” value in data set [2] (FAST:fluorogen complex) turned out to be 36%. In data set [2] (setting [8]), the “λ abs, wavelength of maximal absorption” value turned out to be 494 nm and the “λ em, wavelength of maximal emission” value was 561 nm. In addition, in data set [2], the “F bound/F unbound” value stood at 350 and the “Δλ abs = λ abs,bound – λ abs,unbound, absorption red-shift upon FAST binding” value came to 91 nm. Moreover, binding in data set [3] was put at a Kd of 310 nM. For the same compound, in data set [4], the “toxicity for HeLa cells (cell viability)” value is reported as “non-toxic”.

`Cc1cc(C=C2SC(=S)NC2=O)ccc1O` [HMBR, 4-hydroxy-3-methylbenzylidene rhodanine, reference compound]: in data set [1], the pKa turned out to be 8.7; the “λabs,anionic, wavelength” value stood at 461 nm; the “λabs,neutral, wavelength” value was found to be 401 nm. For the same compound, in data set [2] (FAST:fluorogen complex), the “Brightness = ε × φ” value is 10 300 and the “ε, molar absorption coefficient at λ abs” value turned out to be 45 mM^–1 cm^–1. Moreover, the “F bound/F unbound” value in data set [2] is reported as 300.
